According to patent US20090148883A1, “BIOMARKER FOR ASSESSING RESPONSE TO FMS TREATMENT” (priority 2007, published 2009):
Several values for one entry are separate records, joined by “and”; a condition that tells them apart may be missing. Equal values may be shown once. Read-outs that look alike come from different tables or passages of the source. Marks after values point to notes of the source that are not given here. One block for each compound: values may come before it.

Assays:
[1] = Tolerability in rats, Example 2; format: in vivo; conditions: 5 or 15 mg/kg COMPOUND 2 or 40 mg/kg COMPOUND 1, po bid, 5 consecutive days
Procedure: Groups of female Sprague Dawley rats (n=5) were orally administered 5 or 15 mg/kg of COMPOUND 2 or 40 mg/kg COMPOUND 1 twice per day for 5 consecutive days to characterize compound tolerability. Additional groups of rats, treated with vehicle or 40 mg/kg COMPOUND 1, were terminated one hour after the a.m. dose on Days 1 and 3 for interim analysis of various parameters. Post-mortem analysis of all treated animals included standard necropsy with liver histology evaluation as well as standard hematology and serology. None of the animals were found dead or were euthanized (moribund) prior to scheduled termination. None of the treatments affected body weight or the organ:body weight ratio of selected organs (i.e., liver, thymus, spleen & uterus). […] Both compounds, at the highest dose tested, decreased the number of macrophages in the uterus (up to ˜60% for COMPOUND 2) on Day 5 however, this parameter was highly variable. […]
On Days 1 & 3, one hour after a.m. dose, five rats from Groups 1 and 4 were euthanized using CO2 asphyxiation and exsanguinated via cardiac puncture. […] The macrophage content of the uterus was determined immunohistochemically using a macrophage-specific (ED-1) antibody. […]

[2] = tested on: ED-1 positive macrophages in the uterus; assay: Macrophage content of the uterus (ED-1 immunohistochemistry) in rats, Example 2; format: in vivo, rat; conditions: Day 5
Procedure: (§1) Groups of female Sprague Dawley rats (n=5) were orally administered 5 or 15 mg/kg of COMPOUND 2 or 40 mg/kg COMPOUND 1 twice per day for 5 consecutive days to characterize compound tolerability. Additional groups of rats, treated with vehicle or 40 mg/kg COMPOUND 1, were terminated one hour after the a.m. dose on Days 1 and 3 for interim analysis of various parameters. Post-mortem analysis of all treated animals included standard necropsy with liver histology evaluation as well as standard hematology and serology. None of the animals were found dead or were euthanized (moribund) prior to scheduled termination. None of the treatments affected body weight or the organ:body weight ratio of selected organs (i.e., liver, thymus, spleen & uterus). […] Both compounds, at the highest dose tested, decreased the number of macrophages in the uterus (up to ˜60% for COMPOUND 2) on Day 5 however, this parameter was highly variable.
(§2) On Days 1 & 3, one hour after a.m. dose, five rats from Groups 1 and 4 were euthanized using CO2 asphyxiation and exsanguinated via cardiac puncture. Blood samples (˜500 μL) were transferred to separate ethylenediaminetetraacetic acid (EDTA) microtainers and a complete blood count (CBC) was conducted using the Advia 120 Hematology System (Bayer Diagnostics, Tarrytown, N.Y.). Additional blood samples were transferred to separate microtainers (with or without anticoagulant) and processed for biomarker (i.e., MCSF-1) and serologic (i.e., AST/ALT) analysis. The liver and thymus were weighed and discarded. The spleens were weighed and zap-frozen and the uteri (without ovaries attached) were weighed and fixed in 10% buffered formalin. The macrophage content of the uterus was determined immunohistochemically using a macrophage-specific (ED-1) antibody.
On Day 5, rats were euthanized using carbon dioxide and exsanguinated via cardiac puncture. […]
Differences between treated and control groups were analyzed statistically by ANOVA with a Dunnett's Multiple Comparison post-test. […]

CSF-1 [3] = assay: Plasma CSF-1 biomarker in rats, Example 2 (po bid 5 days); format: in vivo, rat; conditions: 5 mg/kg po bid, 5 consecutive days
Procedure: as §1
On Day 0, the rats were ear tagged, randomized into the treatment groups (Groups 1 & 4: n=15, Groups 2 & 3: n=5), weighed and treated (po, bid) with either vehicle (20% HPbCD) or the test articles as delineated in Table 2 (Allocation of Treatment Groups).
as §2
On Day 5, rats were euthanized using carbon dioxide and exsanguinated via cardiac puncture. Blood samples (˜500 μL) were collected and processed as described above for CBC, biomarker analysis and serology. The liver, spleen, thymus and uterus (without ovaries attached) were isolated, weighed and fixed in buffered formalin. The right knee with femur attached was isolated, trimmed and fixed in formalin. The left femur was isolated for determination of bone marrow cell counts. Liver histopathology was also conducted.
Differences between treated and control groups were analyzed statistically by ANOVA with a Dunnett's Multiple Comparison post-test. (p value; *:<0.05, **:<0.01).

[4] = Plasma compound levels in rats dosed 4 days, Examples 3 and 4; format: in vivo, rat; conditions: for concentration at 2 h: rat, plasma
uterine macrophages = assay: Uterine ED1 stained area (uterine macrophage density) in rats dosed 4 days, Examples 3 and 4; format: in vivo, rat; conditions: for Uterine macrophages depleted: vs vehicle; for Uterine ED1 area/HPF, Mean (SEM) / Uterine ED1 area/HPF, Mean: group mean; for Uterine ED1 area/HPF: individual animals
Procedure: (§3) Pharmacodynamic activity in rats was determined to identify appropriate doses for efficacy studies. Circulating CSF-1 is cleared by sinusoidal macrophages when bound and internalized by FMS in a process that is partly dependent on FMS kinase activity. CSF-1 levels rise when FMS is inhibited, or when FMS inhibition reduces the number/function of macrophages. Uterine macrophages are short-lived and FMS-dependent. Quantitation of uterine macrophage density and plasma CSF-1 levels thereby provided pharmacodynamic endpoints measurable in rats following 4 days of dosing.
(§4) […] On the fifth day, a final dose was given and the animals were sacrificed 2 hrs later. Rats were euthanized using CO2 asphyxiation and exsanguinated via cardiac puncture. An aliquot of blood ([…]) was transferred to an EDTA tube and processed for plasma and for determination of plasma compound and CSF-1 biomarker levels.
Spleens, livers and uteri (without ovaries) were isolated and weighed and uteri were fixed in formalin. Uteri sections were stained for ED1 and ED-1 stained area (arbitrary units) at 200× magnification was determined using Image-Pro Plus software.

CSF-1 [5] = assay: Plasma CSF-1 in rats dosed 4 days, Examples 3 and 4 (mouse CSF-1 ELISA); format: in vivo, rat; conditions: for CSF-1 levels elevated: vs vehicle; for CSF-1, pg/ml, Mean (SEM) / Plasma CSF-1, pg/ml, Mean: group mean; for CSF-1, pg/ml, Mean (SEM) / CSF-1, pg/ml (plasma): vehicle mean 127; for CSF-1, pg/ml (plasma) / Plasma CSF-1, pg/ml: individual animals; for Plasma CSF-1, pg/ml, Mean / Plasma CSF-1, pg/ml: vehicle mean 124
Procedure: as §3, §4

[6] = Plasma compound levels in rats dosed 4 days, Examples 3 and 4; format: in vivo, rat; conditions: 2 hrs after final dose, individual animals; for concentration at 2 h: female, Sprague Dawley, rat, plasma, oral
Procedure: Method: Female Sprague Dawley Rats (150 to 200 g BW) from Charles River were administered vehicle or COMPOUND 3 at 10 and 40 mg/kg p.o. bid for 4 days. On the fifth day, a final dose was given and the animals were sacrificed 2 hrs later. Rats were euthanized using CO2 asphyxiation and exsanguinated via cardiac puncture. An aliquot of blood ([…]) was transferred to an EDTA tube and processed for plasma and for determination of plasma compound and CSF-1 biomarker levels.

[7] = 10 mg/kg p.o. bid 4 days, vehicle mean 9808
[8] = 40 mg/kg p.o. bid 4 days, vehicle mean 9808
[9] = 10 mpk, dosed 4 days, vehicle mean 2057
[10] = 20 mpk, dosed 4 days, vehicle mean 2057
[11] = 50 mpk, dosed 4 days, vehicle mean 2057

SMILES: Cc1ncc(-c2c(C3=CCCCC3)c3cc(C#N)ccc3[nH]c2=O)[nH]1 [COMPOUND 2]
Effect on appearance, behavior, body weight or organ:body weight ratio (liver, spleen, thymus) [1]: did not have an observable effect | Effect on macrophage content of the uterus ([2]; highest dose tested (COMPOUND 2 15 mg/kg, COMPOUND 1 40 mg/kg po bid), highly variable): significant effect | Decrease in number of ED-1 positive macrophages per field in the uterus ([2]; up to, dose dependent (5 and 15 mg/kg po bid)): ~60% | Effect on plasma concentrations of CSF-1 (CSF-1 [3]): failed to significantly affect plasma concentrations of CSF-1

concentration at 2 h ([4]; female, Sprague Dawley, oral, 10 mg/kg, 10 mg/kg p.o. bid 4 days, 2 hrs after final dose, group mean, read-out: Compound, ng/ml, Mean (SEM)): 2540 ng/mL | concentration at 2 h ([4]; female, Sprague Dawley, oral, 40 mg/kg, 40 mg/kg p.o. bid 4 days, 2 hrs after final dose, group mean, read-out: Compound, ng/ml, Mean (SEM)): 5370 ng/mL | Compound, ng/ml (plasma) ([6]; 10 mg/kg p.o. bid 4 days): 2080 ng/mL and 2800 ng/mL | Compound, ng/ml (plasma) ([6]; 40 mg/kg p.o. bid 4 days): 5060 ng/mL and 5730 ng/mL | concentration at 2 h ([6]; 10 mg/kg, 10 mg/kg p.o. bid 4 days): 2730 ng/mL | concentration at 2 h ([6]; 40 mg/kg, 40 mg/kg p.o. bid 4 days): 5320 ng/mL
SMILES: CONC(=O)c1cn(-c2ccc3c(c2)CCC3)c2nc(Nc3ccc(C4CCN(C)CC4)cc3)ncc2c1=O [COMPOUND 3]
Uterine macrophages depleted (uterine macrophages; 10 mg/kg p.o. bid 4 days): 51% | Uterine ED1 area/HPF, Mean (SEM) (uterine macrophages; [7]): 4855 arbitrary units | Uterine ED1 area/HPF (uterine macrophages; [7]): 4919 arbitrary units and 7609 arbitrary units and 2037 arbitrary units | Morphology of uterine macrophages (ED-1 staining) (uterine macrophages; 40 mg/kg p.o. bid 4 days): did not have the normal reticulated morphology | Uterine macrophages depleted (uterine macrophages; 40 mg/kg p.o. bid 4 days): 81% | Uterine ED1 area/HPF, Mean (SEM) (uterine macrophages; [8]): 1836 arbitrary units | Uterine ED1 area/HPF (uterine macrophages; [8]): 929 arbitrary units and 1721 arbitrary units and 2858 arbitrary units | CSF-1 levels elevated (CSF-1 [5]; 10 mg/kg p.o. bid 4 days): 4.5 fold | CSF-1, pg/ml, Mean (SEM) (CSF-1 [5]; 10 mg/kg p.o. bid 4 days): 570 pg/mL | CSF-1, pg/ml (plasma) (CSF-1 [5]; 10 mg/kg p.o. bid 4 days): 651 pg/mL and 482 pg/mL and 577 pg/mL | CSF-1 levels elevated (CSF-1 [5]; 40 mg/kg p.o. bid 4 days): 5.5 fold | CSF-1, pg/ml, Mean (SEM) (CSF-1 [5]; 40 mg/kg p.o. bid 4 days): 698 pg/mL | CSF-1, pg/ml (plasma) (CSF-1 [5]; 40 mg/kg p.o. bid 4 days): 548 pg/mL and 746 pg/mL and 801 pg/mL

Plasma compound, ng/ml, Mean ([4]; 10 mpk, dosed 4 days, 2 hours after last dose, group mean): 1414 (186) ng/ml | Plasma compound, ng/ml, Mean ([4]; 20 mpk, dosed 4 days, 2 hours after last dose, group mean): 2636 (172) ng/ml | Plasma compound, ng/ml, Mean ([4]; 50 mpk, dosed 4 days, 2 hours after last dose, group mean): 6612 (881) ng/ml | concentration at 2 h ([4]; 10 mpk, dosed 4 days, 2 hours after last dose, group mean, read-out: Plasma compound, ng/ml, Mean): 1410 ng/mL | concentration at 2 h ([4]; 10 mpk, dosed 4 days, 2 hours after last dose, individual animals, read-out: Plasma compound): 1070 ng/mL | concentration at 2 h ([4]; 20 mpk, dosed 4 days, 2 hours after last dose, individual animals, read-out: Plasma compound): 2510 ng/mL | concentration at 2 h ([4]; 50 mpk, dosed 4 days, 2 hours after last dose, group mean, read-out: Plasma compound, ng/ml, Mean): 6610 ng/mL | concentration at 2 h ([4]; 50 mpk, dosed 4 days, 2 hours after last dose, individual animals, read-out: Plasma compound): 5670 ng/mL | concentration at 2 h ([4]; dosed 4 days, 2 hours after last dose, group mean, read-out: Plasma compound, ng/ml, Mean): 2640 ng/mL
SMILES: CC1(C)CC=C(c2nc(C3CC(C)(C)OC(C)(C)C3)ccc2NC(=O)c2ncc(C#N)[nH]2)CC1 [COMPOUND 4]
Plasma compound ([4]; 10 mpk, dosed 4 days, 2 hours after last dose, individual animals): 968 ng/mL and 1560 ng/mL and 1790 ng/mL and 1680 ng/mL | Plasma compound ([4]; 20 mpk, dosed 4 days, 2 hours after last dose, individual animals): 2670 ng/mL and 2320 ng/mL and 2470 ng/mL and 3210 ng/mL | Plasma compound ([4]; 50 mpk, dosed 4 days, 2 hours after last dose, individual animals): 6090 ng/mL and 4800 ng/mL and 9390 ng/mL and 7110 ng/mL | Uterine macrophages depleted (uterine macrophages; 10 mpk, dosed 4 days): 27% | Uterine ED1 area/HPF, Mean (uterine macrophages; [9]): 1501 arbitrary units | Uterine ED1 area/HPF (uterine macrophages; [9]): 1003 arbitrary units and 1233 arbitrary units and 1174 arbitrary units and 1021 arbitrary units and 3075 arbitrary units | Uterine macrophages depleted (uterine macrophages; 20 mpk, dosed 4 days): 28% | Uterine ED1 area/HPF, Mean (uterine macrophages; [10]): 1476 arbitrary units | Uterine ED1 area/HPF (uterine macrophages; [10]): 1419 arbitrary units and 1995 arbitrary units and 1164 arbitrary units and 1560 arbitrary units and 1244 arbitrary units | Uterine macrophages depleted (uterine macrophages; 50 mpk, dosed 4 days): 44% | Uterine ED1 area/HPF, Mean (uterine macrophages; [11]): 1149 arbitrary units | Uterine ED1 area/HPF (uterine macrophages; [11]): 681 arbitrary units and 1431 arbitrary units and 2955 arbitrary units and 585 arbitrary units and 94 arbitrary units | CSF-1 levels elevated (CSF-1 [5]; 10 mpk, dosed 4 days): 28% | Plasma CSF-1, pg/ml, Mean (CSF-1 [5]; 10 mpk, dosed 4 days, p < 0.05 vs. Vehicle): 159* pg/ml | Plasma CSF-1, pg/ml (CSF-1 [5]; 10 mpk, dosed 4 days): 152 pg/mL and 165 pg/mL and 139 pg/mL and 157 pg/mL and 184 pg/mL | CSF-1 levels elevated (CSF-1 [5]; 20 mpk, dosed 4 days): 79% | Plasma CSF-1, pg/ml, Mean (CSF-1 [5]; 20 mpk, dosed 4 days, p < 0.005 vs. Vehicle): 211** pg/ml | Plasma CSF-1, pg/ml (CSF-1 [5]; 20 mpk, dosed 4 days): 211 pg/mL and 163 pg/mL and 196 pg/mL and 238 pg/mL and 249 pg/mL | CSF-1 levels elevated (CSF-1 [5]; 50 mpk, dosed 4 days): 363% | Plasma CSF-1, pg/ml, Mean (CSF-1 [5]; 50 mpk, dosed 4 days, p < 0.005 vs. Vehicle): 574** pg/ml | Plasma CSF-1, pg/ml (CSF-1 [5]; 50 mpk, dosed 4 days): 540 pg/mL and 696 pg/mL and 506 pg/mL and 585 pg/mL and 541 pg/mL | Dose with a threshold level of activity for CSF-1 elevation and uterine macrophage depletion (CSF-1 [5]; rats dosed 4 days): 10 mg/kg
